# Laboratory results taken from ChEMBL document CHEMBL2073844, “Pharmacological characterization of the murine and human orthologs of multidrug-resistance protein in transfected human embryonic kidney cells” (Mol Pharmacol, 1997).
# “Also recorded” adds a separate entry of the source.
# Columns and labels:
# Assay type in all cases: functional, cell-based
# [1] = molecular target: T1, Multidrug resistance-associated protein 1 (Mus musculus, UniProt O35379); experiment: TP_TRANSPORTER: drug resistance in Mrp1-expressing HEK293 cells; conditions: human
# [2] = molecular target: T2, Multidrug resistance-associated protein 1 (Homo sapiens, UniProt P33527); experiment: TP_TRANSPORTER: drug resistance in MRP1-expressing HEK293 cells
# [3] = molecular target: T1, Multidrug resistance-associated protein 1; experiment: TP_TRANSPORTER: efflux in Mrp1-expressing HEK293 cells; conditions: human
# [4] = molecular target: T2, Multidrug resistance-associated protein 1; experiment: TP_TRANSPORTER: efflux in MRP1-expressing HEK293 cells
# T1 sequence (O35379 whole entry): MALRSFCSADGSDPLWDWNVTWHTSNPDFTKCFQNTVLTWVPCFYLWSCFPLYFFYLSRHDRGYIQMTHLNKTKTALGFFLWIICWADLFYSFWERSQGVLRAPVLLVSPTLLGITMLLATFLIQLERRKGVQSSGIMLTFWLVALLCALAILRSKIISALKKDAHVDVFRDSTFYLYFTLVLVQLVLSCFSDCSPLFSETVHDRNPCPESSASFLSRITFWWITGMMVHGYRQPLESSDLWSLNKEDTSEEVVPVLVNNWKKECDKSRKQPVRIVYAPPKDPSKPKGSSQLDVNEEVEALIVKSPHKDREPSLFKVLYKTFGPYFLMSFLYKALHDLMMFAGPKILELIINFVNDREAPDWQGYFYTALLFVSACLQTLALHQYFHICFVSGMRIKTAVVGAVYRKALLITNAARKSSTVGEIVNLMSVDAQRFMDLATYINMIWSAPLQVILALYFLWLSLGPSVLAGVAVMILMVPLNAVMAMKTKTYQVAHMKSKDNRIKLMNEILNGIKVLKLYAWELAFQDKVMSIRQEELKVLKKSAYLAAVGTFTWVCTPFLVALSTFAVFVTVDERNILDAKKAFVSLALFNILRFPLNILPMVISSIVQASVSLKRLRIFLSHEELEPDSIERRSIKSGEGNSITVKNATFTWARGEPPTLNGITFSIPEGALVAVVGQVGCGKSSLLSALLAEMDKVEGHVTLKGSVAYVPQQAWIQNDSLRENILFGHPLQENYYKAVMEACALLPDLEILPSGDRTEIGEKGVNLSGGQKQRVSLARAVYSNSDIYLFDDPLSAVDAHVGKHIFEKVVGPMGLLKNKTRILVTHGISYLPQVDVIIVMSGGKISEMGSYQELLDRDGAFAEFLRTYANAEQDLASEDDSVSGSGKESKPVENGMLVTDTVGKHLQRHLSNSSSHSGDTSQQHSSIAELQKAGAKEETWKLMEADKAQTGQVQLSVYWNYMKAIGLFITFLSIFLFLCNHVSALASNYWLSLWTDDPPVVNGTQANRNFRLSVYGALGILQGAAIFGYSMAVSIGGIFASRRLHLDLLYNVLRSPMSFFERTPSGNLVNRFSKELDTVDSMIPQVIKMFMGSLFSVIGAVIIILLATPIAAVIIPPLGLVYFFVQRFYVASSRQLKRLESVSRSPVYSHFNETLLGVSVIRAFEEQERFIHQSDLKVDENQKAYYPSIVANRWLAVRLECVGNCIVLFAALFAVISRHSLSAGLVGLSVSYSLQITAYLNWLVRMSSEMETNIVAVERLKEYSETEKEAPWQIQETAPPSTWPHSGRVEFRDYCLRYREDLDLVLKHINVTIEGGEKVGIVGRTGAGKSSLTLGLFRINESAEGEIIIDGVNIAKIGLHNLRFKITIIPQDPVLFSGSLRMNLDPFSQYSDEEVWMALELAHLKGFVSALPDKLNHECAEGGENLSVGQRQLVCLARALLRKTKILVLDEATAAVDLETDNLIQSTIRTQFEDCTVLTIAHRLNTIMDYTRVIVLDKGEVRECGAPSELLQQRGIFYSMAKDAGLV
# T2 sequence (P33527 whole entry): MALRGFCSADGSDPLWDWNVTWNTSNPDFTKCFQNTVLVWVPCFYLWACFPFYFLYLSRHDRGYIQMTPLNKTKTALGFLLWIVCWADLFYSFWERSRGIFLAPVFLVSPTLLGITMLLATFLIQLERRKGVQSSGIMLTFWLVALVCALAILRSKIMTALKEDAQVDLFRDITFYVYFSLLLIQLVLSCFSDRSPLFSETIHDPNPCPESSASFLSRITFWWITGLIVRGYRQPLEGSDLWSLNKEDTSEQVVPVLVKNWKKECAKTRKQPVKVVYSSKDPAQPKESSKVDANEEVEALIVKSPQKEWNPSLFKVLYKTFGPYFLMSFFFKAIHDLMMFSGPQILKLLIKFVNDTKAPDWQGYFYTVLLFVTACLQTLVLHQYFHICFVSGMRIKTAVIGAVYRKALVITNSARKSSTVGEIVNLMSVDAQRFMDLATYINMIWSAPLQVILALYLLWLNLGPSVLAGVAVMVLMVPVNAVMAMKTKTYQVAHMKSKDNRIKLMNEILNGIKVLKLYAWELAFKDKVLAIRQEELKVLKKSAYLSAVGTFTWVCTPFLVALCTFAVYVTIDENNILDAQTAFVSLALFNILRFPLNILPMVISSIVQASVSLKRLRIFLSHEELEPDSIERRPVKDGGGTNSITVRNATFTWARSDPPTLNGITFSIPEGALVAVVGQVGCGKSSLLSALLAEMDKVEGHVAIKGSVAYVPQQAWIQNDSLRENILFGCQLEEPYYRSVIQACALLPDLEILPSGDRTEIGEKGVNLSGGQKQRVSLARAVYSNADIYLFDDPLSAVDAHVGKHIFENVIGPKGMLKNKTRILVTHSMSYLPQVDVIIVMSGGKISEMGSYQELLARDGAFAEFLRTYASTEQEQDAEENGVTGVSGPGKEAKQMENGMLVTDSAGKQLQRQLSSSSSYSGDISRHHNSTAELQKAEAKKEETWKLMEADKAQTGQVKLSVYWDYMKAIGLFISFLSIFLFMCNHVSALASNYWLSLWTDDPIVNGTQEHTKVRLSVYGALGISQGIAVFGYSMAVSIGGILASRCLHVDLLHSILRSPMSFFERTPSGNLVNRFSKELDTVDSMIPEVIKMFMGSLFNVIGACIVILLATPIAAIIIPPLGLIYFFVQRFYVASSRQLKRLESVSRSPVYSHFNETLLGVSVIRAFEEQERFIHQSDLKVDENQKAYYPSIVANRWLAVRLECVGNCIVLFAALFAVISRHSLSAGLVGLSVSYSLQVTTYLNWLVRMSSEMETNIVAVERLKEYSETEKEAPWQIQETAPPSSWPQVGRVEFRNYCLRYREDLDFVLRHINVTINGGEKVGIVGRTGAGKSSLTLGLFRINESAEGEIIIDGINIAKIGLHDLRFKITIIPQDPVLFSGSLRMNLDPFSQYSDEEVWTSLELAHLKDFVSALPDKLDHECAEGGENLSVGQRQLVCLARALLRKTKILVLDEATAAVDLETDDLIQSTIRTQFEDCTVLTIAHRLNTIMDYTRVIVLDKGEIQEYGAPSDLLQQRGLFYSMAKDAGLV
Compound,Activity [1],Activity [2],Activity [3],Activity [4]
COc1cc2c(c(OC)c1OC)-c1ccc(OC)c(=O)cc1[C@@H](NC(C)=O)CC2 [COLCHICINE],substrate [+]; also recorded: is not a substrate [-],–,–,–
COc1cccc2c1C(=O)c1c(O)c3c(c(O)c1C2=O)C[C@@](O)(C(=O)CO)C[C@@H]3O[C@H]1C[C@H](N)[C@H](O)[C@H](C)O1 [DOXORUBICIN],is not a substrate [-],substrate [+],–,–
COc1cccc2c1C(=O)c1c(O)c3c(c(O)c1C2=O)C[C@@](O)(C(=O)CO)C[C@@H]3O[C@H]1C[C@H](N)[C@@H](O)[C@H](C)O1 [EPIRUBICIN],is not a substrate [-],substrate [+],–,–
COc1cc([C@@H]2c3cc4c(cc3[C@@H](O[C@@H]3O[C@@H]5CO[C@@H](C)O[C@H]5[C@H](O)[C@H]3O)[C@H]3COC(=O)[C@H]23)OCO4)cc(OC)c1O [ETOPOSIDE],–,–,substrate [+],substrate [+]
CC[C@]1(O)C[C@H]2CN(CCc3c([nH]c4ccccc34)[C@@](C(=O)OC)(c3cc4c(cc3OC)N(C=O)[C@H]3[C@@](O)(C(=O)OC)[C@H](OC(C)=O)[C@]5(CC)C=CCN6CC[C@]43[C@@H]65)C2)C1 [VINCRISTINE],–,–,substrate [+],–
